Results from ChEMBL document CHEMBL3352739, “Comparative in vivo evaluation of polyalkoxy substituted 4H-chromenes and oxa-podophyllotoxins as microtubule destabilizing agents in the phenotypic sea urchin embryo assay” (2014).

Legend:
[1] = Growth inhibition of human EKVX cells after 48 hrs by sulforhodamine B assay; format: functional
[2] = tested on: HOP-62; assay: Growth inhibition of human HOP62 cells after 48 hrs by sulforhodamine B assay; format: functional; details: HOP-62, 48 h
[3] = Growth inhibition of human HOP92 cells after 48 hrs by sulforhodamine B assay; format: functional; details: HOP-92, 48 h
[4] = tested on: NCI-H226; assay: Growth inhibition of human NCI-H226 cells after 48 hrs by sulforhodamine B assay; format: functional; details: NCI-H226, 48 h
[5] = tested on: NCI-H23; assay: Growth inhibition of human NCI-H23 cells after 48 hrs by sulforhodamine B assay; format: functional; details: NCI-H23, 48 h
[6] = tested on: NCI-H322M; assay: Growth inhibition of human NCI-H322M cells after 48 hrs by sulforhodamine B assay; format: functional
[7] = tested on: NCI-H460; assay: Growth inhibition of human NCI-H460 cells after 48 hrs by sulforhodamine B assay; format: functional; details: NCI-H460, 48 h
[8] = tested on: NCI-H522; assay: Growth inhibition of human NCI-H522 cells after 48 hrs by sulforhodamine B assay; format: functional; details: NCI-H522, 48 h
[9] = Growth inhibition of human COLO205 cells after 48 hrs by sulforhodamine B assay; format: functional; details: COLO 205, 48 h
[10] = Growth inhibition of human HCC2998 cells after 48 hrs by sulforhodamine B assay; format: functional; details: HCC 2998, 48 h
[11] = Growth inhibition of human HCT116 cells after 48 hrs by sulforhodamine B assay; format: functional; details: HCT-116, 48 h
[12] = Growth inhibition of human HCT15 cells after 48 hrs by sulforhodamine B assay; format: functional; details: HCT-15, 48 h
[13] = tested on: HT-29; assay: Growth inhibition of human HT-29 cells after 48 hrs by sulforhodamine B assay; format: functional; details: HT-29, 48 h
[14] = tested on: KM12; assay: Growth inhibition of human KM12 cells after 48 hrs by sulforhodamine B assay; format: functional; details: KM12, 48 h
[15] = tested on: SW-620; assay: Growth inhibition of human SW620 cells after 48 hrs by sulforhodamine B assay; format: functional; details: SW-620, 48 h
[16] = tested on: SF-268; assay: Growth inhibition of human SF268 cells after 48 hrs by sulforhodamine B assay; format: functional; details: SF-268, 48 h
[17] = Growth inhibition of human SF295 cells after 48 hrs by sulforhodamine B assay; format: functional; details: SF-295, 48 h
[18] = Growth inhibition of human SF539 cells after 48 hrs by sulforhodamine B assay; format: functional; details: SF-539, 48 h
[19] = tested on: SNB-19; assay: Growth inhibition of human SNB19 cells after 48 hrs by sulforhodamine B assay; format: functional; details: SNB-19, 48 h
[20] = tested on: SNB-75; assay: Growth inhibition of human SNB75 cells after 48 hrs by sulforhodamine B assay; format: functional; details: SNB-75, 48 h
[21] = tested on: U-251; assay: Growth inhibition of human U251 cells after 48 hrs by sulforhodamine B assay; format: functional; details: U-251, 48 h
[22] = Growth inhibition of human LOXIMVI cells after 48 hrs by sulforhodamine B assay; format: functional; details: LOX IMVI
[23] = tested on: M14; assay: Growth inhibition of human M14 cells after 48 hrs by sulforhodamine B assay; format: functional; details: M14, 48 h
[24] = tested on: MDA-MB-435; assay: Growth inhibition of human MDA-MB-435 cells after 48 hrs by sulforhodamine B assay; format: functional; details: MDA-MB-435, 48 h
[25] = tested on: SK-MEL-2; assay: Growth inhibition of human SK-MEL-2 cells after 48 hrs by sulforhodamine B assay; format: functional; details: SK-MEL-2, 48 h
[26] = tested on: SK-MEL-28; assay: Growth inhibition of human SK-MEL-28 cells after 48 hrs by sulforhodamine B assay; format: functional; details: SK-MEL-28, 48 h
[27] = tested on: SK-MEL-5; assay: Growth inhibition of human SK-MEL-5 cells after 48 hrs by sulforhodamine B assay; format: functional; details: SK-MEL-5, 48 h
[28] = Growth inhibition of human UACC62 cells after 48 hrs by sulforhodamine B assay; format: functional; details: UACC-62, 48 h
[29] = tested on: IGROV-1; assay: Growth inhibition of human IGROV1 cells after 48 hrs by sulforhodamine B assay; format: functional; details: IGROV-1, 48 h
[30] = Growth inhibition of human OVCAR3 cells after 48 hrs by sulforhodamine B assay; format: functional; details: OVCAR-3, 48 h
[31] = Growth inhibition of human OVCAR4 cells after 48 hrs by sulforhodamine B assay; format: functional; details: OVCAR-4, 48 h
[32] = Growth inhibition of human OVCAR5 cells after 48 hrs by sulforhodamine B assay; format: functional; details: OVCAR-5, 48 h
[33] = Growth inhibition of human OVCAR8 cells after 48 hrs by sulforhodamine B assay; format: functional; details: OVCAR-8, 48 h
[34] = Growth inhibition of human NCI-ADR-RES cells after 48 hrs by sulforhodamine B assay; format: functional
[35] = tested on: SK-OV-3; assay: Growth inhibition of human SKOV3 cells after 48 hrs by sulforhodamine B assay; format: functional; details: SK-OV-3, 48 h
[36] = tested on: 786-0; assay: Growth inhibition of human 786-0 cells after 48 hrs by sulforhodamine B assay; format: functional; details: 786-0, 48 h
[37] = tested on: A498; assay: Growth inhibition of human A498 cells after 48 hrs by sulforhodamine B assay; format: functional; details: A498, 48 h
[38] = tested on: ACHN; assay: Growth inhibition of human ACHN cells after 48 hrs by sulforhodamine B assay; format: functional
[39] = tested on: CAKI-1; assay: Growth inhibition of human CAKI-1 cells after 48 hrs by sulforhodamine B assay; format: functional; details: CAKI-1, 48 h
[40] = Growth inhibition of human RXF393 cells after 48 hrs by sulforhodamine B assay; format: functional; details: RXF 393, 48 h
[41] = tested on: SN12C; assay: Growth inhibition of human SN12C cells after 48 hrs by sulforhodamine B assay; format: functional
[42] = tested on: TK-10; assay: Growth inhibition of human TK10 cells after 48 hrs by sulforhodamine B assay; format: functional; details: TK-10, 48 h
[43] = Growth inhibition of human UO31 cells after 48 hrs by sulforhodamine B assay; format: functional; details: UO-31, 48 h
[44] = Growth inhibition of human PC3 cells after 48 hrs by sulforhodamine B assay; format: functional; details: PC-3, 48 h
[45] = tested on: DU-145; assay: Growth inhibition of human DU145 cells after 48 hrs by sulforhodamine B assay; format: functional; details: DU-145, 48 h
[46] = tested on: MCF7; assay: Growth inhibition of human MCF7 cells after 48 hrs by sulforhodamine B assay; format: functional; details: MCF7, 48 h
[47] = tested on: MDA-MB-231; assay: Growth inhibition of human MDA-MB-231 cells after 48 hrs by sulforhodamine B assay; format: functional; details: MDA-MB-231, 48 h
[48] = Growth inhibition of human Hs 578T cells after 48 hrs by sulforhodamine B assay; format: functional
[49] = Growth inhibition of human BT549 cells after 48 hrs by sulforhodamine B assay; format: functional; details: BT-549, 48 h
[50] = tested on: MDA-MB-468; assay: Growth inhibition of human MDA-MB-468 cells after 48 hrs by sulforhodamine B assay; format: functional; details: MDA-MB-468, 48 h
[51] = tested on: Paracentrotus lividus; assay: Antimitotic microtubule destabilizing activity in Paracentrotus lividus L embryos assessed as induction of cleavage alteration
[52] = tested on: Paracentrotus lividus; assay: Antimitotic microtubule destabilizing activity in Paracentrotus lividus L embryos assessed as induction of cleavage arrest
[53] = tested on: Paracentrotus lividus; assay: Antimitotic microtubule destabilizing activity in Paracentrotus lividus L embryos assessed as induction of embryo spinning
[54] = Cytotoxicity against human NCI60 cells; format: functional
[55] = tested on: CCRF-CEM; assay: Growth inhibition of human CCRF-CEM cells after 48 hrs by sulforhodamine B assay; format: functional
[56] = tested on: HL-60(TB); assay: Growth inhibition of human HL-60(TB) cells after 48 hrs by sulforhodamine B assay; format: functional; details: HL-60, 48 h
[57] = tested on: K562; assay: Growth inhibition of human K562 cells after 48 hrs by sulforhodamine B assay; format: functional; details: K562, 48 h
[58] = Growth inhibition of human MOLT4 cells after 48 hrs by sulforhodamine B assay; format: functional; details: MOLT-4, 48 h
[59] = Growth inhibition of human RPMI8226 cells after 48 hrs by sulforhodamine B assay; format: functional; details: RPMI-8226, 48 h
[60] = tested on: SR; assay: Growth inhibition of human SR cells after 48 hrs by sulforhodamine B assay; format: functional
[61] = tested on: A549; assay: Growth inhibition of human A549/ATCC cells after 48 hrs by sulforhodamine B assay; format: functional; details: A549, 48 h

Compound: COc1cc(C2C(C#N)=C(N)Oc3cc(O)ccc32)cc(OC)c1OC (stereo unspecified)
- GI50 [1]: 6490 nM
- GI50 [2]: 796 nM
- GI50 [3]: 301 nM
- GI50 [4]: 31200 nM
- GI50 [5]: 813 nM
- GI50 [6]: 783 nM
- GI50 [7]: 374 nM
- GI50 [8]: 255 nM
- GI50 [9]: 852 nM
- GI50 [10]: 975 nM
- GI50 [11]: 453 nM
- GI50 [12]: 513 nM
- GI50 [13]: 392 nM
- GI50 [14]: 451 nM
- GI50 [15]: 347 nM
- GI50 [16]: 14500 nM
- GI50 [17]: 323 nM
- GI50 [18]: 347 nM
- GI50 [19]: 811 nM
- GI50 [20]: 271 nM
- GI50 [21]: 349 nM
- GI50 [22]: 523 nM
- GI50 [23]: 375 nM
- GI50 [24]: 136 nM
- GI50 [25]: 539 nM
- GI50 [26]: 934 nM
- GI50 [27]: 305 nM
- GI50 [28]: 358 nM
- GI50 [29]: 2840 nM
- GI50 [30]: 338 nM
- GI50 [31]: 3490 nM
- GI50 [32]: 4520 nM
- GI50 [33]: 836 nM
- GI50 [34]: 2320 nM
- GI50 [35]: 560 nM
- GI50 [36]: 605 nM
- GI50 [37]: 161 nM
- GI50 [38]: 922 nM
- GI50 [39]: 885 nM
- GI50 [40]: 287 nM
- GI50 [41]: 790 nM
- GI50 [42]: 9830 nM
- GI50 [43]: 2800 nM
- GI50 [44]: 462 nM
- GI50 [45]: 637 nM
- GI50 [46]: 324 nM
- GI50 [47]: 927 nM
- GI50 [48]: 463 nM
- GI50 [49]: 386 nM
- GI50 [50]: 250 nM
- EC [51]: 4 µM
- EC [52]: > 4 µM
- EC [53]: > 4 µM
- GI50 [54]: 692 nM
- GI50 [55]: 375 nM
- GI50 [56]: 327 nM
- GI50 [57]: 460 nM
- GI50 [58]: 652 nM
- GI50 [59]: 691 nM
- GI50 [60]: 371 nM
- GI50 [61]: 638 nM
